The values below come from patent publication US20240270753A1, “HETEROCYCLIC COMPOUND FOR INHIBITING SHP2 ACTIVITY, PREPARATION METHOD THEREFOR AND USE THEREOF” (SHANGHAI INSTITUTE OF MATERIA MEDICA, CHINESE ACADEMY OF …, priority 2021, published 2024).

The subject of one assay is MV4-11 cells. The experiment in a line: MV4-11 cell proliferation inhibition assay (MTS). The assay is classed as cell-based. The settings on record: MTS read on the third day. Here is the method:
(a) SHP099 and TNO155 were used as positive controls.
(b) MV4-11 cells (10,000 cells/well) were seeded in a 96-well culture plate with 100 μL/well of the culture medium (IMDM supplemented with 10% fetal bovine serum (FBS), from Gibco company), and cultured for 6 hours. The compounds formulated in different concentrations of the present invention were added. On the third day, 20 μL of MTS reagent (purchased from Promega Company) was added to each well, and the absorbance value was detected according to the reagent instructions (Promega Company). The IC50 of the inhibitory activity of the compounds of the present invention against the MV4-11 cell proliferation is shown in Table 2.

For assay [1], the system named is p-ERK 1/2 (Thr202/Tyr204) in MIAPaca-2 cells. The experiment in a line: Cell protein kinase (p-ERK) phosphorylation inhibition, AlphaLISA. In kind it is cell-based. The settings on record: treated for 2 hours. The method, then: The inhibition of the phosphorylation level of intracellular protein kinase (ERK) by a compound was detected by AlphaLISA method. The first step was to treat the cells with the compound. The compound to be tested was first diluted 5-fold with 100% DMSO, and a gradient including a total of 9 different concentrations was set; then MIAPaca-2 cells were inoculated into a 96-well plate at a density of 40,000 cells per well, with a volume of 80 μL per well; then 20 μL of DMSO or the compound to be tested with different concentrations was added to each well, with 2 replicates for each concentration, and the final concentration of DMSO was controlled at 0.5%. The second step was to lyse the cells. After the cells were treated for 2 hours, the culture medium was removed, and the cells were washed three times with a HBSS solution. 50 μL of a freshly prepared lysis buffer was added to each well, shaken, and left at room temperature for 10 minutes. […] 10 μL of the above lysate was put into a 384-well plate (Perkin Elmer, 6005350), and the phosphorylation level of the extracellular signal-regulated kinase in the sample was detected according to the manufacturer's instructions. Signals were read using the AlphaScreen detector on an Envision multifunctional microplate reader (PerkinElmer). The inhibition (%) was calculated by the following equation: […]
(In Alpha technology, singlet oxygen from a donor bead excites a nearby acceptor bead.)

One may read the IC50 as the concentration that inhibits the measured activity by half. In the assay with MV4-11 cells, `CC1(N)CCN(c2cnc(-c3cccc(Cl)c3Cl)c(N)n2)CC1` [SHP099] yielded a concentration for half-maximal inhibition (IC50) of 883 ± 105 nM.

`C[C@@H]1OCC2(CCN(c3cnc(Sc4ccnc(N)c4Cl)c(N)n3)CC2)[C@@H]1N` [TNO155]: the IC50 in assay [1] came out at 30 nM; in the assay with MV4-11 cells, 118 ± 5.8 nM.
